The values that follow come from ChEMBL document CHEMBL1156523, “Cryptosporidium p30, a galactose/N-acetylgalactosamine-specific lectin, mediates infection in vitro” (J Biol Chem, 2007).

As a reminder, the IC50 is the concentration that gives 50% inhibition. As usually defined, the MIC is the smallest concentration in the dilution series that meets the test's criterion for growth inhibition.

Structures are written as SMILES. Values after ≈ are worked out from the molar mass of the structure shown.

Assay [1] can be described thus: Inhibition of Cryptosporidium parvum recombinant Galactose/N-acetylgalactosamine-specific lectin binding to Caco2A cells. Particulars: caco-2. Type of assay: cell-based.
For assay [2], the system named is Cryptosporidium hominis. Briefly: Anticryptosporidial activity against Cryptosporidium hominis TU502 assessed as inhibition of rabbit erythrocytes hemagglutinination. Type of assay: functional.
Assay [3] concerns Cryptosporidium parvum. Put plainly: Anticryptosporidial activity against Cryptosporidium parvum GCH1 assessed as inhibition of rabbit erythrocytes hemagglutinination. The assay is classed as functional.
The test system of assay [4] is Cryptosporidium parvum. Put plainly: Anticryptosporidial activity against Cryptosporidium parvum GCH1 assessed as inhibition of rabbit erythrocytes hemagglutinination relative to galactose. The assay is classed as functional.
For assay [5], the system named is Cryptosporidium hominis. Briefly: Anticryptosporidial activity against Cryptosporidium hominis TU502 assessed as inhibition of rabbit erythrocytes hemagglutinination relative to galactose. The assay is classed as functional.

Take `CO[C@H]1O[C@H](CO)[C@@H](O)[C@H](O)[C@H]1O`: the IC50 in assay [1] is over 500 mM.
Take `O=[N+]([O-])c1ccc(O[C@@H]2O[C@H](CO)[C@H](O)[C@H](O)[C@H]2O)cc1`: the IC50 in assay [1] was found to be 50 mM.
As for `CC(=O)N[C@H]1C(O)O[C@H](CO)[C@H](O)[C@@H]1O[C@@H]1O[C@H](CO)[C@H](O)[C@H](O)[C@H]1O` (stereo partly drawn), the IC50 in assay [1] is 3.5 mM.
As to `CC(=O)N[C@H]1C(O)O[C@H](CO)[C@H](O)[C@@H]1O` (stereo partly drawn), the minimum inhibitory concentration (MIC) with Cryptosporidium hominis [2] and in the assay with Cryptosporidium parvum [3] was 3.1 mM (≈ 686 µg/mL) each time. Also, the Activity in the assay with Cryptosporidium parvum [4] and in the assay on Cryptosporidium hominis [5] was 2 each time. For the same molecule, the IC50 in assay [1] came out at 6.5 mM.
As to `CC(=O)N[C@@H]1[C@@H](O[C@@H]2O[C@H](CO)[C@H](O)[C@H](O)[C@H]2O)[C@H](O)[C@@H](CO)O[C@H]1O`, the IC50 in assay [1] was found to be 1.5 mM.
Consider `OC[C@H]1O[C@H](O[C@@H]2[C@H](O)[C@@H](O)C(O)O[C@@H]2CO)[C@H](O)[C@@H](O)[C@H]1O` (stereo partly drawn), for which the IC50 in assay [1] is 2.5 mM.
On the same count and under the same terms, the figure for `OC[C@H]1O[C@H](O[C@H]2[C@H](O)[C@@H](O)[C@H](O)O[C@@H]2CO)[C@H](O)[C@@H](O)[C@H]1O` is 5 mM.
Turning to `O=[N+]([O-])c1ccc(O[C@H]2O[C@H](CO)[C@H](O)[C@H](O)[C@H]2O)cc1`, the IC50 in assay [1] was determined as 25 mM.
For `CC(=O)N[C@@H]1[C@@H](O)[C@H](O)[C@@H](CO[C@@H]2O[C@H](CO)[C@H](O)[C@H](O)[C@H]2O)O[C@H]1O`, the 50% inhibitory concentration (IC50) in assay [1] was determined as 0.5 mM.
Consider `OC[C@H]1OC(O)[C@@H](O)[C@@H](O)[C@@H]1O` (stereo partly drawn) [D-MANNOSE], for which the results for the MIC in the assay on Cryptosporidium hominis [2] and with Cryptosporidium parvum [3] were over 100 mM and 50 mM (≈ 9010 µg/mL), respectively. For the same molecule, the Activity with Cryptosporidium parvum [4] worked out at 0.124; in the assay on Cryptosporidium hominis [5], 0.062. The IC50 in assay [1] is over 500 mM.
As to `OC[C@H]1O[C@@H](O)[C@H](O)[C@@H](O)[C@@H]1O` [DEXTROSE], the MIC in the assay with Cryptosporidium hominis [2] was over 100 mM; in the assay with Cryptosporidium parvum [3], 100 mM (≈ 18000 µg/mL). Moreover, the Activity in the assay on Cryptosporidium parvum [4] and in the assay on Cryptosporidium hominis [5] was 0.062 throughout. Further, in assay [1], the IC50 is over 500 mM.
For the molecule `O=C[C@H](O)[C@@H](O)[C@@H](O)[C@H](O)CO` [GALACTOSE], the MIC with Cryptosporidium hominis [2] and in the assay with Cryptosporidium parvum [3] was 6.2 mM (≈ 1120 µg/mL) each time. In addition, the Activity in the assay with Cryptosporidium parvum [4] and with Cryptosporidium hominis [5] was 1 throughout. Further, in assay [1], the IC50 stood at 12.5 mM.
`C[C@H](O)[C@@H](O)[C@@H](O)[C@H](O)C=O` [L-FUCOSE]: the MIC with Cryptosporidium hominis [2] and with Cryptosporidium parvum [3] was over 100 mM in each case. Moreover, the Activity with Cryptosporidium parvum [4] and in the assay on Cryptosporidium hominis [5] was under 0.062 each time. The IC50 in assay [1] is over 500 mM.
Take `CC(=O)N[C@@H]1[C@@H](O)[C@H](O)[C@@H](CO)O[C@H]1O` [N-ACETYLGLUCOSAMINE]: the MIC in the assay on Cryptosporidium hominis [2] was over 100 mM; in the assay on Cryptosporidium parvum [3], 50 mM (≈ 11100 µg/mL). The results for the Activity with Cryptosporidium parvum [4] and in the assay on Cryptosporidium hominis [5] were 0.124 and 0.062, respectively. Besides, the IC50 in assay [1] was over 500 mM.
